Test system: vasopressor response of angiotensin II
Assay: AII Challenge: antagonism of angiotensin II vasopressor response;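 on Response Average Change: post-dose Angiotensin II-evoked rise in systolic blood pressure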
Format: in vivo
Conditions: for inhibition in vivo at 1 mg/kg / inhibition in vivo at 3 mg/kg / inhibition in vivo at 5 mg/kg: Rattus norvegicus; for inhibition in vivo at 1 mg/kg / inhibition in vivo at 3 mg/kg: iv; for inhibition in vivo at 5 mg/kg: po
From the text: Conscious Male Okamoto-Aoki SHR, 16-20 weeks old, weighing approximately 330 g are purchased from Charles River Labs (Wilmington, Mass.). Conscious rats are restrained in a supine position with elastic tape. The area at the base of the tail is locally anesthetized by subcutaneous infiltration with 2% procaine. The ventral caudal artery and vein are isolated, and a cannula made of polyethylene (PE) 10-20 tubing (fused together by heat) is passed into the lower abdominal aorta and vena cava, respectively. The cannula is secured, heparinized (1,000 I.U./ml), sealed and the wound is closed. The animals are placed in plastic restraining cages in an upright position. The cannula is attached to a Statham P23 Db pressure transducer, and pulsatile blood pressure is recorded to 10-15 minutes with a Gould Brush recorder. (Chan et al., (Drug Development Res., 18:75-94, 1989). Angiotensin II (human sequence, Sigma Chem. Co., St. Louis, Mo.) of 0.05 and 0.1 ug/kg i.v. is injected into all rats (predosing response). Then a test compound, vehicle or a known angiotensin II antagonist is administered i.v., i.p. or orally to each set of rats. The two doses of angiotensin II are given to each rat again at 30, 60, 90, 120, 180, 240 and 300 minutes post dosing the compound or vehicle. The vasopressor response of angiotensin II is measured for the increase in systolic blood pressure in mmHg. The percentage of antagonism or blockade of the vasopressor response of angiotensin II by a compound is calculated using the vasopressor response (increase in systolic blood pressure) of angiotensin II of each rat predosing the compound as 100%.

## CCCCc1nc2ccc([C@]3(CC)C[C@@H]4CCCN4O3)cc2c(=O)n1Cc1ccc(-c2ccccc2-c2nnn[nH]2)cc1 (relative stereo) [Example 72, Trans-2-butyl-6-(2-ethylhexahydropyrrolo[1,2-b]isoxazol-2-yl)-3-[[2'-(1H-tetrazol-5-yl)[1,1'-biphenyl]-4-yl]methyl]-4(3H)-quinazolinone]
1 mg/kg i.v., AII 0.05 mcg/kg IV, 30 min post dose
  Response Average Change: 20 mmHg
1 mg/kg i.v., AII 0.05 mcg/kg IV, 60 min post dose
  Response Average Change: 15 mmHg
1 mg/kg i.v., AII 0.05 mcg/kg IV, 90 min post dose
  Response Average Change: 17.5 mmHg
1 mg/kg i.v., AII 0.05 mcg/kg IV, 120 min post dose
  Response Average Change: 22.5 mmHg
1 mg/kg i.v., AII 0.05 mcg/kg IV, 180 min post dose
  Response Average Change: 36.5 mmHg
1 mg/kg i.v., AII 0.05 mcg/kg IV, 240 min post dose
  Response Average Change: 30 mmHg
1 mg/kg i.v., AII 0.05 mcg/kg IV, 300 min post dose
  Response Average Change: 37.5 mmHg
1 mg/kg i.v., AII 0.1 mcg/kg IV, 30 min post dose
  Response Average Change: 25.5 mmHg
1 mg/kg i.v., AII 0.1 mcg/kg IV, 60 min post dose
  Response Average Change: 17.5 mmHg
1 mg/kg i.v., AII 0.1 mcg/kg IV, 90 min post dose
  Response Average Change: 32.5 mmHg
1 mg/kg i.v., AII 0.1 mcg/kg IV, 120 min post dose
  Response Average Change: 25 mmHg
1 mg/kg i.v., AII 0.1 mcg/kg IV, 180 min post dose
  Response Average Change: 35 mmHg
1 mg/kg i.v., AII 0.1 mcg/kg IV, 240 min post dose
  Response Average Change: 40 mmHg
1 mg/kg i.v., AII 0.1 mcg/kg IV, 300 min post dose
  Response Average Change: 42.5 mmHg
0.5 h, 1 mg/kg i.v., AII 0.05 mcg/kg IV, 30 min post dose
  inhibition in vivo at 1 mg/kg: 60%
0.5 h, 1 mg/kg i.v., AII 0.1 mcg/kg IV, 30 min post dose
  inhibition in vivo at 1 mg/kg: 58%
1 h, 1 mg/kg i.v., AII 0.05 mcg/kg IV, 60 min post dose
  inhibition in vivo at 1 mg/kg: 70%
1 h, 1 mg/kg i.v., AII 0.1 mcg/kg IV, 60 min post dose
  inhibition in vivo at 1 mg/kg: 71%
2 h, 1 mg/kg i.v., AII 0.05 mcg/kg IV, 120 min post dose
  inhibition in vivo at 1 mg/kg: 55%
2 h, 1 mg/kg i.v., AII 0.1 mcg/kg IV, 120 min post dose
  inhibition in vivo at 1 mg/kg: 58%
3 h, 1 mg/kg i.v., AII 0.05 mcg/kg IV, 180 min post dose
  inhibition in vivo at 1 mg/kg: 27%
3 h, 1 mg/kg i.v., AII 0.1 mcg/kg IV, 180 min post dose
  inhibition in vivo at 1 mg/kg: 42%
4 h, 1 mg/kg i.v., AII 0.05 mcg/kg IV, 240 min post dose
  inhibition in vivo at 1 mg/kg: 40%
5 h, 1 mg/kg i.v., AII 0.05 mcg/kg IV, 300 min post dose
  inhibition in vivo at 1 mg/kg: 35%
5 h, 1 mg/kg i.v., AII 0.1 mcg/kg IV, 300 min post dose
  inhibition in vivo at 1 mg/kg: 29%
[…], 1 mg/kg i.v., AII 0.05 mcg/kg IV, 90 min post dose
  inhibition in vivo at 1 mg/kg: 65%
[…], 1 mg/kg i.v., AII 0.1 mcg/kg IV, 90 min post dose
  inhibition in vivo at 1 mg/kg: 46%

## CCCCc1nc2ccc(C3ON4CCCC4C3C(=O)OCC)cc2c(=O)n1Cc1ccc(-c2ccccc2-c2nnn[nH]2)cc1 (stereo not shown) [Example 62, Ethyl 2-[2-butyl-3,4-dihydro-4-oxo-3-[[2'-(1H-tetrazol-5-yl)[1,1'-biphenyl]-4-yl]methyl]-6quinazolinyl]hexahydro-pyrrolo[1,2-b]isoxazole3-carboxylate]
3 mg/kg I.V., AII 0.05 mcg/kg IV, 30 min post dose
  Response Average Change: 14 mmHg
3 mg/kg I.V., AII 0.05 mcg/kg IV, 60 min post dose
  Response Average Change: 18 mmHg
3 mg/kg I.V., AII 0.05 mcg/kg IV, 90 min post dose
  Response Average Change: 30 mmHg
3 mg/kg I.V., AII 0.05 mcg/kg IV, 120 min post dose
  Response Average Change: 25 mmHg
3 mg/kg I.V., AII 0.05 mcg/kg IV, 180 min post dose
  Response Average Change: 33.5 mmHg
3 mg/kg I.V., AII 0.1 mcg/kg IV, 30 min post dose
  Response Average Change: 10 mmHg
3 mg/kg I.V., AII 0.1 mcg/kg IV, 60 min post dose
  Response Average Change: 36 mmHg
3 mg/kg I.V., AII 0.1 mcg/kg IV, 90 min post dose
  Response Average Change: 40 mmHg
3 mg/kg I.V., AII 0.1 mcg/kg IV, 120 min post dose
  Response Average Change: 35 mmHg
3 mg/kg I.V., AII 0.1 mcg/kg IV, 180 min post dose
  Response Average Change: 35 mmHg
5 mg/kg P.O., AII 0.05 mcg/kg IV, 30 min post dose
  Response Average Change: 22.5 mmHg
5 mg/kg P.O., AII 0.05 mcg/kg IV, 60 min post dose
  Response Average Change: 37.5 mmHg
5 mg/kg P.O., AII 0.05 mcg/kg IV, 120 min post dose
  Response Average Change: 40 mmHg
5 mg/kg P.O., AII 0.05 mcg/kg IV, 180 min post dose
  Response Average Change: 25 mmHg
5 mg/kg P.O., AII 0.05 mcg/kg IV, 240 min post dose
  Response Average Change: 40 mmHg
5 mg/kg P.O., AII 0.1 mcg/kg IV, 30 min post dose
  Response Average Change: 43.5 mmHg
5 mg/kg P.O., AII 0.1 mcg/kg IV, 60 min post dose
  Response Average Change: 43.5 mmHg
5 mg/kg P.O., AII 0.1 mcg/kg IV, 90 min post dose
  Response Average Change: 45 mmHg
5 mg/kg P.O., AII 0.1 mcg/kg IV, 120 min post dose
  Response Average Change: 45 mmHg
5 mg/kg P.O., AII 0.1 mcg/kg IV, 180 min post dose
  Response Average Change: 47.5 mmHg
5 mg/kg P.O., AII 0.1 mcg/kg IV, 240 min post dose
  Response Average Change: 50 mmHg
0.5 h, 3 mg/kg I.V., AII 0.05 mcg/kg IV, 30 min post dose
  inhibition in vivo at 3 mg/kg: 61%
0.5 h, 3 mg/kg I.V., AII 0.1 mcg/kg IV, 30 min post dose
  inhibition in vivo at 3 mg/kg: 82%
1 h, 3 mg/kg I.V., AII 0.05 mcg/kg IV, 60 min post dose
  inhibition in vivo at 3 mg/kg: 49%
1 h, 3 mg/kg I.V., AII 0.1 mcg/kg IV, 60 min post dose
  inhibition in vivo at 3 mg/kg: 36%
2 h, 3 mg/kg I.V., AII 0.05 mcg/kg IV, 120 min post dose
  inhibition in vivo at 3 mg/kg: 30%
2 h, 3 mg/kg I.V., AII 0.1 mcg/kg IV, 120 min post dose
  inhibition in vivo at 3 mg/kg: 38%
3 h, 3 mg/kg I.V., AII 0.05 mcg/kg IV, 180 min post dose
  inhibition in vivo at 3 mg/kg: 6%
3 h, 3 mg/kg I.V., AII 0.1 mcg/kg IV, 180 min post dose
  inhibition in vivo at 3 mg/kg: 38%
[…], 3 mg/kg I.V., AII 0.05 mcg/kg IV, 90 min post dose
  inhibition in vivo at 3 mg/kg: 15%
[…], 3 mg/kg I.V., AII 0.1 mcg/kg IV, 90 min post dose
  inhibition in vivo at 3 mg/kg: 29%
0.5 h, 5 mg/kg P.O., AII 0.05 mcg/kg IV, 30 min post dose
  inhibition in vivo at 5 mg/kg: 44%
0.5 h, 5 mg/kg P.O., AII 0.1 mcg/kg IV, 30 min post dose
  inhibition in vivo at 5 mg/kg: -5%
1 h, 5 mg/kg P.O., AII 0.05 mcg/kg IV, 60 min post dose
  inhibition in vivo at 5 mg/kg: 6%
1 h, 5 mg/kg P.O., AII 0.1 mcg/kg IV, 60 min post dose
  inhibition in vivo at 5 mg/kg: -5%
2 h, 5 mg/kg P.O., AII 0.05 mcg/kg IV, 120 min post dose
  inhibition in vivo at 5 mg/kg: 0%
2 h, 5 mg/kg P.O., AII 0.1 mcg/kg IV, 120 min post dose
  inhibition in vivo at 5 mg/kg: -8%
3 h, 5 mg/kg P.O., AII 0.05 mcg/kg IV, 180 min post dose
  inhibition in vivo at 5 mg/kg: 38%
3 h, 5 mg/kg P.O., AII 0.1 mcg/kg IV, 180 min post dose
  inhibition in vivo at 5 mg/kg: -14%
4 h, 5 mg/kg P.O., AII 0.05 mcg/kg IV, 240 min post dose
  inhibition in vivo at 5 mg/kg: 0%
4 h, 5 mg/kg P.O., AII 0.1 mcg/kg IV, 240 min post dose
  inhibition in vivo at 5 mg/kg: -20%
[…], 5 mg/kg P.O., AII 0.05 mcg/kg IV, 90 min post dose
  inhibition in vivo at 5 mg/kg: 19%
[…], 5 mg/kg P.O., AII 0.1 mcg/kg IV, 90 min post dose
  inhibition in vivo at 5 mg/kg: -8%

— patent US5358951A, “Angiotensin II receptor blocking 2, 3, 6 substituted quinazolinones” (American Cyanamid Company, priority 1993, dated 1994)
